Data set [1] can be described thus: Cytotoxicity test in HEp-2 cells (CCK8 cell viability). In kind it is cell-based. The settings on record: human; HEp-2 cells, CCK8, 1 day; read-out: CC50. Put shortly:
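HEp-2 cells seeded at 30,000/well, cultured overnight at 37° C./5% CO2, then exposed to diluted compound for 1 day in 0.5% DMSO. Viability read by CCK8, normalised to untreated-cell and medium-only controls; CC50 from four-parameter variable-slope fit.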

For another data set, the system named is RSV A long virus strain. The class given is cell-based. The settings on record: RSV A long virus strain, HEp-2 cells, plaque reduction, 1 day; read-out: IC50. Put shortly:
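HEp-2 cells (30000/well) infected with 100 PFU virus premixed 1 h with compound (8 concentrations, duplicate); after 2 h adsorption, cultured 1 day at 37 °C under 0.8% CMC overlay with compound. Plaques immunostained (RSV antibody, TrueBlue) and counted; IC50 and CC50 by non-linear fitting of % inhibition versus virus and cell controls.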

Where a SMILES comes first, the peptide text is derived from it. The star is where a group is joined. X1 = CC(C)CCCC(C)C1CCC2C3CC=C4CC(OC(=O)CCC(=O)*)CCC4(C)C3CCC12C

Here are results for seven compounds from US20260250325A1, “Antiviral Polypeptide Membrane Fusion Inhibitor, and Preparation Method and Application Thereof” (priority 2025, published 2026).

As usually defined, the CC50 is the concentration at which the toxic effect on the cells reaches its halfway point. For orientation: IC50 means the concentration that gives 50% inhibition. Take `CC[C@H](C)[C@H](NC(C)=O)C(=O)N[C@@H](CC(C)C)C(=O)N[C@@H](CCC(=O)O)C(=O)N[C@@H](CC(C)C)C(=O)N[C@H](C(=O)N[C@@H](CC(N)=O)C(=O)N[C@@H](CCCCN)C(=O)N[C@@H](CCCCN)C(=O)N[C@H](C(=O)N[C@@H](CCC(=O)O)C(=O)N[C@@H](CCC(N)=O)C(=O)N[C@@H](CO)C(=O)N[C@@H](CC(C)C)C(=O)N[C@@H](CCCCN)C(=O)N[C@@H](Cc1ccccc1)C(=O)N[C@H](C(=O)N[C@@H](CCC(=O)O)C(=O)N[C@@H](CCCCN)C(=O)N[C@@H](CO)C(=O)N[C@@H](CC(=O)O)C(=O)N[C@@H](CCCCN)C(=O)N[C@@H](CC(C)C)C(=O)N[C@@H](CC(C)C)C(=O)N[C@@H](CCC(=O)O)C(=O)N[C@@H](CC(N)=O)C(=O)N[C@@H](CCC(=O)O)C(=O)N[C@@H](C)C(=O)N[C@@H](C)C(=O)N[C@@H](C)C(=O)N[C@@H](CCCCN)C(=O)N[C@@H](CCCCNC(=O)CCC(=O)OC1CCC2(C)C(=CCC3C2CCC2(C)C(C(C)CCCC(C)C)CCC32)C1)C(N)=O)[C@@H](C)CC)[C@@H](C)CC)C(C)C` (some centres unmarked) [Compound 32] (Ac-ILELVNKKIEQSLKFIEKSDKLLENEAAAKK(X1)-NH2): the CC50 at 1 day in data set [1] was greater than 8 µM. Also, the IC50 in the data set on RSV A long virus strain came out at 0.296 µM.

In the case of `CC[C@H](C)[C@H](NC(=O)[C@H](CCCCN)NC(=O)[C@H](CCCCN)NC(=O)[C@H](CC(N)=O)NC(=O)[C@@H](NC(=O)[C@H](CCC(N)=O)NC(=O)[C@H](CCC(=O)O)NC(=O)[C@H](CC(C)C)NC(=O)[C@H](CO)NC(C)=O)C(C)C)C(=O)N[C@@H](CC(N)=O)C(=O)N[C@@H](CCC(N)=O)C(=O)N[C@@H](CO)C(=O)N[C@@H](CC(C)C)C(=O)N[C@@H](CCCCN)C(=O)N[C@H](C(=O)N[C@@H](CC(N)=O)C(=O)N[C@@H](CCCCN)C(=O)N[C@@H](CCCCN)C(=O)N[C@@H](CO)C(=O)N[C@@H](CC(=O)O)C(=O)N[C@@H](CCCCN)C(=O)N[C@@H](CC(C)C)C(=O)N[C@@H](CC(C)C)C(=O)N[C@@H](CCC(=O)O)C(=O)N[C@@H](CC(N)=O)C(=O)N[C@@H](CCC(=O)O)C(=O)N[C@@H](C)C(=O)N[C@@H](C)C(=O)N[C@@H](C)C(=O)N[C@@H](CCCCN)C(=O)N[C@@H](CCCCNC(=O)CCC(=O)OC1CCC2(C)C(=CCC3C2CCC2(C)C(C(C)CCCC(C)C)CCC32)C1)C(N)=O)C(C)C` (some centres unmarked) [Compound 33] (Ac-SLEQVNKKINQSLKVNKKSDKLLENEAAAKK(X1)-NH2), the CC50 at 1 day in data set [1] was greater than 8 µM. In addition, the IC50 in the data set on RSV A long virus strain amounted to 5.04 µM.

Regarding `CC[C@H](C)[C@H](NC(=O)[C@H](CCC(=O)O)NC(=O)[C@H](CCC(=O)O)NC(=O)[C@H](CC(C)C)NC(=O)[C@H](CO)NC(=O)[C@H](CCC(N)=O)NC(=O)[C@H](CC(N)=O)NC(=O)[C@@H](NC(=O)[C@H](CCCCN)NC(=O)[C@H](CC(C)C)NC(=O)[C@H](CO)NC(=O)[C@H](CCC(N)=O)NC(=O)[C@H](CCC(=O)O)NC(=O)[C@@H](NC(=O)[C@H](CCCCN)NC(=O)[C@H](CCCCN)NC(=O)[C@H](CC(N)=O)NC(=O)[C@@H](NC(=O)[C@H](CCC(=O)O)NC(=O)[C@H](CCC(=O)O)NC(=O)[C@H](CC(=O)O)NC(=O)[C@H](Cc1ccccc1)NC(C)=O)C(C)C)[C@@H](C)CC)[C@@H](C)CC)C(=O)N[C@@H](CCCNC(=N)N)C(=O)N[C@@H](CCCCN)C(=O)N[C@@H](CO)C(=O)N[C@@H](CCC(=O)O)C(=O)N[C@@H](C)C(=O)N[C@@H](C)C(=O)N[C@@H](C)C(=O)N[C@@H](CCCCN)C(=O)N[C@@H](CCCCNC(=O)CCC(=O)OC1CCC2(C)C(=CCC3C2CCC2(C)C(C(C)CCCC(C)C)CCC32)C1)C(N)=O` (some centres unmarked) [Compound 34] (Ac-FDEEVNKKIEQSLKINQSLEEIRKSEAAAKK(X1)-NH2), in data set [1], the CC50 at 1 day turned out to be 1.5 µM. Further, the IC50 in the data set with RSV A long virus strain is greater than 2 µM.

As to `CC[C@H](C)[C@H](NC(=O)[C@H](CO)NC(C)=O)C(=O)N[C@@H](CO)C(=O)N[C@@H](CCC(N)=O)C(=O)N[C@H](C(=O)N[C@@H](CC(N)=O)C(=O)N[C@@H](CCC(=O)O)C(=O)N[C@@H](CCCCN)C(=O)N[C@H](C(=O)N[C@@H](CC(N)=O)C(=O)N[C@@H](CCC(=O)O)C(=O)N[C@H](C(=O)N[C@@H](CCC(N)=O)C(=O)N[C@@H](CO)C(=O)N[C@@H](CC(C)C)C(=O)N[C@@H](CCC(=O)O)C(=O)N[C@@H](CCC(=O)O)C(=O)N[C@@H](CCCCN)C(=O)N[C@@H](CO)C(=O)N[C@@H](CC(=O)O)C(=O)N[C@@H](CCCCN)C(=O)N[C@@H](CC(C)C)C(=O)N[C@@H](CC(C)C)C(=O)N[C@@H](CCCCN)C(=O)N[C@@H](CO)C(=O)N[C@@H](CCC(=O)O)C(=O)N[C@@H](C)C(=O)N[C@@H](C)C(=O)N[C@@H](C)C(=O)N[C@@H](CCCCN)C(=O)N[C@@H](CCCCNC(=O)CCC(=O)OC1CCC2(C)C(=CCC3C2CCC2(C)C(C(C)CCCC(C)C)CCC32)C1)C(N)=O)[C@@H](C)CC)[C@@H](C)CC)C(C)C` (some centres unmarked) [Compound 35] (Ac-SISQVNEKINEIQSLEEKSDKLLKSEAAAKK(X1)-NH2), the CC50 at 1 day in data set [1] stood at 5.1 µM. In addition, the IC50 with RSV A long virus strain was found to be 5.53 µM.

With `CC[C@H](C)[C@H](NC(=O)[C@H](CCCCN)NC(=O)[C@H](CC(=O)O)NC(=O)[C@H](CO)NC(=O)[C@H](CCC(N)=O)NC(=O)[C@H](CCCCN)NC(=O)[C@H](CCCCN)NC(=O)[C@H](CC(C)C)NC(=O)[C@H](CO)NC(=O)[C@H](CCC(N)=O)NC(=O)[C@H](CCCCN)NC(=O)[C@H](CCC(=O)O)NC(=O)[C@H](CCC(=O)O)NC(=O)[C@H](CCC(=O)O)NC(=O)[C@@H](NC(=O)[C@H](CCCCN)NC(=O)[C@H](CCCCN)NC(=O)[C@H](CC(N)=O)NC(=O)[C@@H](NC(C)=O)C(C)C)[C@@H](C)CC)C(=O)N[C@@H](CCC(=O)O)C(=O)N[C@@H](CCC(=O)O)C(=O)N[C@@H](CO)C(=O)N[C@@H](CC(=O)O)C(=O)N[C@@H](CCC(=O)O)C(=O)N[C@@H](CC(N)=O)C(=O)N[C@@H](CCC(=O)O)C(=O)N[C@@H](C)C(=O)N[C@@H](C)C(=O)N[C@@H](C)C(=O)N[C@@H](CCCCN)C(=O)N[C@@H](CCCCNC(=O)CCC(=O)OC1CCC2(C)C(=CCC3C2CCC2(C)C(C(C)CCCC(C)C)CCC32)C1)C(N)=O` (some centres unmarked) [Compound 36] (Ac-VNKKIEEEKQSLKKQSDKIEESDENEAAAKK(X1)-NH2), the 50% cytotoxic concentration (CC50) at 1 day in data set [1] is greater than 8 µM. Also, the IC50 in the data set on RSV A long virus strain worked out at 6.82 µM.

In the case of `CC[C@H](C)[C@H](NC(=O)[C@H](CCCCN)NC(=O)[C@H](CCCCN)NC(=O)[C@H](CC(N)=O)NC(=O)[C@@H](NC(=O)[C@H](CC(C)C)NC(=O)[C@H](CCC(=O)O)NC(=O)[C@H](CC(=O)O)NC(=O)[C@H](Cc1ccccc1)NC(C)=O)C(C)C)C(=O)N[C@@H](CCC(=O)O)C(=O)N[C@@H](CCCCN)C(=O)N[C@H](C(=O)N[C@@H](CCC(=O)O)C(=O)N[C@@H](CCC(=O)O)C(=O)N[C@H](C(=O)N[C@@H](CC(N)=O)C(=O)N[C@@H](CCCCN)C(=O)N[C@@H](CCCCN)C(=O)N[C@@H](CO)C(=O)N[C@@H](CC(C)C)C(=O)N[C@@H](CCCCN)C(=O)N[C@@H](CC(C)C)C(=O)N[C@@H](CC(C)C)C(=O)N[C@@H](CCC(=O)O)C(=O)N[C@@H](CO)C(=O)N[C@@H](CCC(=O)O)C(=O)N[C@@H](C)C(=O)N[C@@H](C)C(=O)N[C@@H](C)C(=O)N[C@@H](CCCCN)C(=O)N[C@@H](CCCCNC(=O)CCC(=O)OC1CCC2(C)C(=CCC3C2CCC2(C)C(C(C)CCCC(C)C)CCC32)C1)C(N)=O)C(C)C)[C@@H](C)CC` (some centres unmarked) [Compound 37] (Ac-FDELVNKKIEKIEEVNKKSLKLLESEAAAKK(X1)-NH2), the CC50 at 1 day in data set [1] came to 4 µM. The IC50 in the data set with RSV A long virus strain came to 5.23 µM.

In the case of `CC[C@H](C)[C@H](NC(=O)[C@H](CO)NC(=O)[C@H](C)NC(=O)[C@H](CC(=O)O)NC(=O)[C@H](Cc1ccccc1)NC(=O)[C@H](CCC(=O)O)NC(=O)[C@H](CC(=O)O)NC(=O)[C@H](Cc1c[nH]c2ccccc12)NC(C)=O)C(=O)N[C@@H](CO)C(=O)N[C@@H](CCC(N)=O)C(=O)N[C@@H](CC(N)=O)C(=O)N[C@@H](CCC(=O)O)C(=O)N[C@@H](CCCCN)C(=O)N[C@H](C(=O)N[C@@H](CC(N)=O)C(=O)N[C@@H](CCC(N)=O)C(=O)N[C@@H](CO)C(=O)N[C@@H](CC(C)C)C(=O)N[C@@H](CCC(=O)O)C(=O)N[C@@H](CCC(=O)O)C(=O)N[C@H](C(=O)N[C@@H](CCCNC(=N)N)C(=O)N[C@@H](CCCCN)C(=O)N[C@@H](CO)C(=O)N[C@@H](CC(=O)O)C(=O)N[C@@H](CCC(=O)O)C(=O)N[C@@H](CC(C)C)C(=O)N[C@@H](CC(C)C)C(=O)N[C@@H](Cc1c[nH]cn1)C(=O)N[C@@H](CC(N)=O)C(=O)N[C@@H](CC(N)=O)C(=O)N[C@@H](C)C(=O)N[C@@H](CC(C)C)C(=O)N[C@@H](CCC(=O)O)C(=O)N[C@@H](C)C(=O)N[C@@H](C)C(=O)N[C@@H](C)C(=O)N[C@@H](CCCCN)C(=O)N[C@@H](CCCCNC(=O)CCC(=O)OC1CCC2(C)C(=CCC3C2CCC2(C)C(C(C)CCCC(C)C)CCC32)C1)C(N)=O)[C@@H](C)CC)[C@@H](C)CC` (some centres unmarked) [Compound 39] (Ac-WDEFDASISQNEKINQSLEEIRKSDELLHNNALEAAAKK(X1)-NH2), the CC50 at 1 day in data set [1] was greater than 100 µM. Further, the IC50 with RSV A long virus strain stood at 0.113 µM.
